How the values were obtained:
TSSK4(h) = TSSK4(h) (Homo sapiens, UniProt Q6SA08); experiment: Kinase Profiler; type: biochemical
Description: (§3) The kinase profiler was performed by the company Eurofins (Discovery, Panlab and Cerep).

Met(Y1248C)(h) = Met(Y1248C)(h) (Homo sapiens, UniProt P08581, Y1230C); experiment: Kinase Profiler; type: biochemical
Description: as §3

MST2(h) = MST2(h) (Homo sapiens, UniProt Q13188); experiment: Kinase Profiler; type: biochemical
Description: (§4) Blood cell counts, kinase profiler, safety screen, bacterial cytotoxicity, Ames, micronucleus assays were performed by the company Eurofins (France). The kinase profiler was performed by the company Eurofins (Discovery, Panlab and Cerep).

PKCθ(h) = PKCθ(h) (Homo sapiens, UniProt Q04759); experiment: Kinase Profiler; type: biochemical
Description: as §3

Flt3(D835Y)(h) = Flt3(D835Y)(h) (Homo sapiens, UniProt P36888, D835Y); experiment: Kinase Profiler; type: biochemical
Description: as §3

mTOR/FKBP12(h) = mTOR/FKBP12(h) (Homo sapiens, UniProt P42345); experiment: Kinase Profiler; type: biochemical
Chain of mTOR/FKBP12(h) (P42345 1362-2549 limits assumed): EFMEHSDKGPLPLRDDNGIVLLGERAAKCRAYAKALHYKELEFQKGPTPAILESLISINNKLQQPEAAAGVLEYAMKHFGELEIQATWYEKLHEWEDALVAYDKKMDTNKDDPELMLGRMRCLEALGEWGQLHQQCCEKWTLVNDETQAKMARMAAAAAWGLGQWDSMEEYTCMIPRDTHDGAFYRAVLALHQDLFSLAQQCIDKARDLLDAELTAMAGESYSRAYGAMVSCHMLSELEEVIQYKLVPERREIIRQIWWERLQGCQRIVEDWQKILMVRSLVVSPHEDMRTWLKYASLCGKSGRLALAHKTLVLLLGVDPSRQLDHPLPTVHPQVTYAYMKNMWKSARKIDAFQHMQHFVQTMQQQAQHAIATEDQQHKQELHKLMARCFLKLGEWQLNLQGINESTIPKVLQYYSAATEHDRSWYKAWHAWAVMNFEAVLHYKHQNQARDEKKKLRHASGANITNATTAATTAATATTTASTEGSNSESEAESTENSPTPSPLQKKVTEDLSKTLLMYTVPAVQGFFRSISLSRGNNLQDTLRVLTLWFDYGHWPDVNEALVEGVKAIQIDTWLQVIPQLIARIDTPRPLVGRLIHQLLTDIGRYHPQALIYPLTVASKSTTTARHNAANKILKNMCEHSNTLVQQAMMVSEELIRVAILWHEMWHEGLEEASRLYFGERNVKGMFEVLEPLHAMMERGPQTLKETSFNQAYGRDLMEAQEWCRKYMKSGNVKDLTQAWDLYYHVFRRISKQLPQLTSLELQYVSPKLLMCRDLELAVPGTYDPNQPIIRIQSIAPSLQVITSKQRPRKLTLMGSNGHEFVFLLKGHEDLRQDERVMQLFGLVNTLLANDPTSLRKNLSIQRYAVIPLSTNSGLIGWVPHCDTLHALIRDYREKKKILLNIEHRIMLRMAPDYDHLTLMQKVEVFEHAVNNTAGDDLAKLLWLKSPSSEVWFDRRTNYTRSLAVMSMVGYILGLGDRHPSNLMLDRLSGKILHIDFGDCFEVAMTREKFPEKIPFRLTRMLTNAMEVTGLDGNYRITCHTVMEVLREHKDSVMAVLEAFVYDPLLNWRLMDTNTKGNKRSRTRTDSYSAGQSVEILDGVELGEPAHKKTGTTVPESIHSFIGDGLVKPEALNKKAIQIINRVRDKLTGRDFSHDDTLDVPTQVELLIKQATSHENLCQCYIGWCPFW
Description: as §3

PRAK(h) = PRAK(h) (Homo sapiens, UniProt Q8IW41); experiment: Kinase Profiler; type: biochemical
Description: as §4

CHK2(h) = CHK2(h) (Homo sapiens, UniProt O96017); experiment: Kinase Profiler; type: biochemical
Chain of CHK2(h) (O96017 whole entry): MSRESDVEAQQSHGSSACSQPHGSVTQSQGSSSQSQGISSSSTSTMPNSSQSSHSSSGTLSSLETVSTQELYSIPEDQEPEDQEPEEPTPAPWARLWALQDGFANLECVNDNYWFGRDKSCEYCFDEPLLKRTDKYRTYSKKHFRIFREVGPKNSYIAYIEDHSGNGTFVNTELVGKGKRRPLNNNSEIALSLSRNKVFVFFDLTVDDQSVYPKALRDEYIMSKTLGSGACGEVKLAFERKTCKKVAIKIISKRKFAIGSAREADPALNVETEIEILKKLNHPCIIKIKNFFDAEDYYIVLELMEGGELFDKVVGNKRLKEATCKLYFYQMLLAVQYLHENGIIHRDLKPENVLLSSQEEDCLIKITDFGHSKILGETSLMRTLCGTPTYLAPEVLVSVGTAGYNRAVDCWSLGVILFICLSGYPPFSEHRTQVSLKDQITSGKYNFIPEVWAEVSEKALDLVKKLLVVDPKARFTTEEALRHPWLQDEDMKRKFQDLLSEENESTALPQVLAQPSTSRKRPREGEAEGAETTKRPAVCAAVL
Description: as §3

SIK3(h) = SIK3(h) (Homo sapiens, UniProt Q9Y2K2); experiment: Kinase Profiler; type: biochemical
Description: as §3

PKCγ(h) = PKCγ(h) (Homo sapiens, UniProt P05129); experiment: Kinase Profiler; type: biochemical
Description: as §3

MAP4K3(h) = MAP4K3(h) (Homo sapiens, UniProt Q8IVH8); experiment: Kinase Profiler; type: biochemical
Description: as §3

ACTR2(h) = ACTR2(h) (Homo sapiens, UniProt P27037); experiment: Kinase Profiler; type: biochemical
Chain of ACTR2(h) (P27037 20-513): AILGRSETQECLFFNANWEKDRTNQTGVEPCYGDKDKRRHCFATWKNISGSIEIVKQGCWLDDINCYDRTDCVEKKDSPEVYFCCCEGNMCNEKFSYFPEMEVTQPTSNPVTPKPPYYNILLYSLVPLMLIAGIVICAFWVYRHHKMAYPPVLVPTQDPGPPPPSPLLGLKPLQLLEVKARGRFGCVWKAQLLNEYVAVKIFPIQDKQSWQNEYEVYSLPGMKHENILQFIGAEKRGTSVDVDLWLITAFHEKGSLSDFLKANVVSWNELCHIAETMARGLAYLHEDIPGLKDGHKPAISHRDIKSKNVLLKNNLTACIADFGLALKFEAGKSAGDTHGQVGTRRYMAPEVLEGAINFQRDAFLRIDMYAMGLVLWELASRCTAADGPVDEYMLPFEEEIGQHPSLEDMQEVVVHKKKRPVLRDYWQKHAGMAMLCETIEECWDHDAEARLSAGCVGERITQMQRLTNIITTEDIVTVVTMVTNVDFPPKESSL
Description: as §3

[1] = system: Glutamate, NMDA, Phencyclidine; experiment: Safety screen; type: binding, rat
Description: as §4

Cdc7/cyclinB1(h) = Cdc7/cyclinB1(h) (Homo sapiens, UniProt O00311); experiment: Kinase Profiler; type: biochemical
Description: as §3

CDK4/cyclinD3(h) = CDK4/cyclinD3(h) (Homo sapiens, UniProt P11802); experiment: Kinase Profiler; type: biochemical
Description: as §4

CDK16/cyclinY(h) = CDK16/cyclinY(h) (Homo sapiens, UniProt Q00536); experiment: Kinase Profiler; type: biochemical
Description: as §4

Aurora-A(h) = Aurora-A(h) (Homo sapiens, UniProt O14965); experiment: Kinase Profiler; type: biochemical
Chain of Aurora-A(h) (O14965 whole entry): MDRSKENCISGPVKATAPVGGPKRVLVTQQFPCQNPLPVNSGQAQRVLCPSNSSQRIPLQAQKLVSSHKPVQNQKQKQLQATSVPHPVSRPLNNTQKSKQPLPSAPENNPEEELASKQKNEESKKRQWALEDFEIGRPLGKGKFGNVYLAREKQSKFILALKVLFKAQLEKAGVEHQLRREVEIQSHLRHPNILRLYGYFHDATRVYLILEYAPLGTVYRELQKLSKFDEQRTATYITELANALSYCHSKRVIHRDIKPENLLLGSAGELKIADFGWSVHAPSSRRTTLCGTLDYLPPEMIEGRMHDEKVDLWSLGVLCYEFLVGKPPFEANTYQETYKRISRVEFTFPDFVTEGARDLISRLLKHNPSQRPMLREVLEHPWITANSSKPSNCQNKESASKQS
Description: as §4

[2] = system: AKT phosphorylation in MDA-MB-468 Luc cells; experiment: Immunoblotting; type: cell-based; conditions: 10^-5 M, 1 h
Description: (§1) Figure 5 A41 decreases growth and invasiveness of TNBC cells in vitro (A) Representative images of RAC-GTP levels (red) in MDA-MB-468 Luc cells in the absence (CTL) and presence of EHT1864, NSC23766, or A41 (1 h at 10 μM) (left). Luciferase (Luc, green) was used to detect the cells. RAC-GTP mean fluorescence intensity was quantified inside the cell area (right) (n = 31–37 cells from 3 independent experiments; ∗p < 0.05, ∗∗∗p < 0.001) (scale bars: 10 μm). […] (C) Quantification of colony number of indicated cancer cell lines in the presence of A41 (10 μM) expressed as the percentage of control in the absence of A41. Results shown are representative of N > 3 independent experiments. (D) Immunoblot analysis and corresponding quantification of AKT and P44/42 expression and phosphorylation (pAKT, p44/42) in MDA-MB-468 Luc cells in the absence (−) and presence of NSC23766 or A41 (1 h at 10^−5 M). […] (E) 3D invasion assay of MDA-MB-468 Luc and cancer-associated fibroblasts (CAFs) and corresponding quantification (scale bars: 200 μm). […]
(§2) After indicated treatments, MDA-MB-468Luc cells were incubated on ice with lysis buffer supplemented with proteases and phosphatases inhibitor cocktails (Sigma Aldrich, Saint Quentin Fallavier, France) and sodium orthovanadate. […] Protein band intensities were quantified using ImageJ Software (NIH software, Bethesda, Md).

[3] = system: p44/42 phosphorylation in MDA-MB-468 Luc cells; experiment: Immunoblotting; type: cell-based; conditions: 10^-5 M, 1 h
Description: as §1, §2

Arg(h) = Arg(h) (Homo sapiens, UniProt P42684); experiment: Kinase Profiler; type: biochemical
Description: as §4

TBK1(h) = TBK1(h) (Homo sapiens, UniProt Q9UHD2); experiment: Kinase Profiler; type: biochemical
Description: as §4

GSK3α(h) = GSK3α(h) (Homo sapiens, UniProt P49840); experiment: Kinase Profiler; type: biochemical
Chain of GSK3α(h) (P49840 whole entry): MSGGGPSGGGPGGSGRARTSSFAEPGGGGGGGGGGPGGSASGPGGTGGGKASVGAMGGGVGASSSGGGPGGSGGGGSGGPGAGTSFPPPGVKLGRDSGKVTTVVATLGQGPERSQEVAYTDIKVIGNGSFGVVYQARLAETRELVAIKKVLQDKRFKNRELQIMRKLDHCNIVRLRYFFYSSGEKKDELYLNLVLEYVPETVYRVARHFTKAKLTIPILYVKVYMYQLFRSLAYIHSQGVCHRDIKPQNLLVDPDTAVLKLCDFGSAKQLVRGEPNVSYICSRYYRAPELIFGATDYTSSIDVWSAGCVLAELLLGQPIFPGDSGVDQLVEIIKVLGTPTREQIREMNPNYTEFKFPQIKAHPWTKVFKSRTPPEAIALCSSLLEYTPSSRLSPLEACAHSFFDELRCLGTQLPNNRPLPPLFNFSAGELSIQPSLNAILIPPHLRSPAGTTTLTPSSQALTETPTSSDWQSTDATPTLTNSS
Description: as §4

[4] = Ames fluctuation test (1st group); type: cell-based
From the text: Data S3. Ames-fluctuation assay-A41.
Test Concentration Count Positive Significance Fisher Exact Test
(# of wells) (- to +++) (p-value)
Ames fluctuation test (TA100 + S9

[5] = biological target: Protein Tyrosine Kinase, LCK (Homo sapiens, UniProt P06239); experiment: Safety screen; type: biochemical
Chain of Protein Tyrosine Kinase, LCK (P06239 whole entry): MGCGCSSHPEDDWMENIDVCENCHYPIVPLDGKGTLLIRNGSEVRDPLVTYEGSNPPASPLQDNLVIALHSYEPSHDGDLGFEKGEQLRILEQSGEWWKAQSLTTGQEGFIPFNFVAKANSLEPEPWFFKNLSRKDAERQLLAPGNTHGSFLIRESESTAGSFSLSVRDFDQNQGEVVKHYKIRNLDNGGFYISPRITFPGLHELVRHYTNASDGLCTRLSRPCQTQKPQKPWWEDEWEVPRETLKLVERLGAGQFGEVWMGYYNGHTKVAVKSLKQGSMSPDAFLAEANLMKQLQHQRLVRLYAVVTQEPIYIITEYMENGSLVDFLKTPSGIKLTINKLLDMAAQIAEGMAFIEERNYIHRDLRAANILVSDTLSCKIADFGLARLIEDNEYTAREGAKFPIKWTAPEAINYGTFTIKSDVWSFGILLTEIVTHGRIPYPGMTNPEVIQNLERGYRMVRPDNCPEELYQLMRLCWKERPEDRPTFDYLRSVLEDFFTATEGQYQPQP
Description: as §3

MRCKα(h) = MRCKα(h) (Homo sapiens, UniProt Q5VT25); experiment: Kinase Profiler; type: biochemical
Description: as §3

MEKK2(h) = MEKK2(h) (Homo sapiens, UniProt Q9Y2U5); experiment: Kinase Profiler; type: biochemical
Description: as §3

PAK2(h) = PAK2(h) (Homo sapiens, UniProt Q13177); experiment: Kinase Profiler; type: biochemical
Description: as §4

Chain of TSSK4(h) (Q6SA08 whole entry): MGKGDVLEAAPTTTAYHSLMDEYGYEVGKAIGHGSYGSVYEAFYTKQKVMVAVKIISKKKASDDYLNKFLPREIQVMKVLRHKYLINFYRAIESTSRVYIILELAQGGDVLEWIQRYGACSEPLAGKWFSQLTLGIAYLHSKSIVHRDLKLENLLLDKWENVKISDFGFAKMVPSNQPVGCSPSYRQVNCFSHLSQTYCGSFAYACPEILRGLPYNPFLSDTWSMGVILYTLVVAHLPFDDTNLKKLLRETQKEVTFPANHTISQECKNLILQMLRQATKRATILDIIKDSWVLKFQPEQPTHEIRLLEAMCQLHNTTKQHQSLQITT

COc1ccc(OC)c(NS(=O)(=O)c2ccc(NC(=O)CCSc3ccc(C)cc3)cc2)c1 [Compound A41]
Activity(%) (TSSK4(h)): 103%
Activity(%) (Met(Y1248C)(h)): 118%
Activity(%) (MST2(h)): 88%
Activity(%) (PKCθ(h)): 114%
Activity(%) (Flt3(D835Y)(h)): 101%
Activity(%) (mTOR/FKBP12(h)): 104%
Activity(%) (PRAK(h)): 88%
Activity(%) (CHK2(h)): 111%
Activity(%) (SIK3(h)): 106%
Activity(%) (PKCγ(h)): 112%
Activity(%) (MAP4K3(h)): 98%
Activity(%) (ACTR2(h)): 108%
% inh. [1]: -6%
Activity(%) (Cdc7/cyclinB1(h)): 92%
Activity(%) (CDK4/cyclinD3(h)): 96%
Activity(%) (CDK16/cyclinY(h)): 107%
Activity(%) (Aurora-A(h)): 124%
hyperactivation of AKT [2]: reduced
p44/42 activation [3]: unchanged
Activity(%) (Arg(h)): 122%
Activity(%) (TBK1(h)): 102%
Activity(%) (GSK3α(h)): 90%
Count Positive (# of wells) ([4]; 1.0E-04 M): 1
Count Positive (# of wells) ([4]; 1.0E-05 M): 2
Count Positive (# of wells) ([4]; 5.0E-05 M): 0
Count Positive (# of wells) ([4]; 5.0E-06 M): 0
% inh. [5]: 14%
Activity(%) (MRCKα(h)): 109%
Activity(%) (MEKK2(h)): 102%
Activity(%) (PAK2(h)): 110%
